# Measurements from patent publication US11660303B2, “2-phenylimidazo[4,5-b]pyridin-7-amine derivates useful as inhibitors of mammalian tyrosine kinase ROR1 activity” (KANCERA AB, priority 2016, dated 2023).
# How the values were obtained:
# Format in all cases: cell-based
# RC-KB = assay: MTT cytotoxicity assay, RC-KB; conditions: Diffuse large B-cell lymphoma (DLBCL), incubation 48 h
# Procedure: (§1) The MTT assay (Sigma-Aldrich) was used to measure cytotoxic capability of the ROR1 tyrosine kinase inhibitors (ROR1-TKI). Briefly, 2×10^4 cancer cells were incubated in triplicates in 200 μL of RPMI-1640 containing 10% FCS in 96 well plates. ROR1-TKI (dissolved in DMSO), were added to the cells. Cells treated with DMSO were used as negative control. Cells were incubated for 48, 72 or 96 h. An amount of 20 μL MTT solution was added and the cell suspension was incubated for 4 h at 37 degrees C. The reaction was stopped by adding 100 μL MTT solvent (10% SDS in 0.01 M HCl) and was incubated for further 2-4 h. The plate was then read by a microplate reader at 570 nm.
# (§2) Results, in terms of IC50 (μM), are shown in Table 4 for a representative compound of the invention, viz. Example 172.
# OCI-LY3 = assay: MTT cytotoxicity assay, OCI-LY3; conditions: Homo sapiens, OCI-LY3, Diffuse large B-cell lymphoma (DLBCL), incubation 48 h
# Procedure: as §1, §2
# HDLM2 = assay: MTT cytotoxicity assay, HDLM2; conditions: Homo sapiens, HDLM-2, HDLM2, Hodgkin’s Lymphoma (HL), incubation 48 h
# Procedure: as §1, §2
# MDA-V = assay: Flow cytometry Annexin V/PI apoptosis assay, MDA-V; conditions: Hodgkin’s Lymphoma (HL), incubation 48 h
# Procedure: (§3) Flow Cytometry Annexin V/PI Apoptosis Assay
# (§4) An amount of 1 ml (10^5 cells/mL) of cells were seeded in each well of 6-well plates with and without compounds for 48 h. Cells were collected, washed with PBS, suspended in 100 μL of Annexin-V binding buffer (BD Biosciences) containing FITC-conjugated Annexin-V and PI (BD Biosciences) and incubated at room temperature in the dark for 20 min. After 20 min of incubation, 150 μL Annexin-V binding buffer was added. Viable cells were identified as the double negative Annexin-V and PI population. Samples were analyzed by a FACS Canto II Flow-cytometer (BD Biosciences).
# as §2
# H69 = assay: Alamar Blue cell viability assay, H69; conditions: Homo sapiens, NCI-H69; H69, Small cell lung cancer (SCLC), alamarBlue, incubation 72 h
# Procedure: (§5) Alamar Blue Cell Viability Assay
# (§6) Cells were plated 12 hours prior to start of drug treatment, which lasted for 72 hours for all cytotoxicity experiments. Cell viability was estimated by alamarBlue™ Cell Viability Reagent (ThermoFisher, Waltham, Mass.) per manufacturer's instructions.
# as §2
# H82 = assay: Alamar Blue cell viability assay, H82; conditions: Homo sapiens, NCI-H82; H82, Small cell lung cancer, alamarBlue, incubation 72 h
# Procedure: as §5, §6, §2
# H187 = assay: Alamar Blue cell viability assay, H187; conditions: Homo sapiens, NCI-H187; H187, Small cell lung cancer, alamarBlue, incubation 72 h
# Procedure: as §5, §6, §2
# H209 = assay: Alamar Blue cell viability assay, H209; conditions: Homo sapiens, NCI-H209; H209, Small cell lung cancer, alamarBlue, incubation 72 h
# Procedure: as §5, §6, §2
# H1417 = assay: Alamar Blue cell viability assay, H1417; conditions: Homo sapiens, NCI-H1417; H1417, Small cell lung cancer, alamarBlue, incubation 72 h
# Procedure: as §5, §6, §2
# A549 = assay: MTT cytotoxicity assay, A549; conditions: Homo sapiens, A549, Non-small cell lung cancer (NSCLC), incubation 72 h
# Procedure: as §1, §2
# HCC827 = assay: MTT cytotoxicity assay, HCC827; conditions: Homo sapiens, HCC827, Non-small cell lung cancer, incubation 72 h
# Procedure: as §1, §2
# H1975 = assay: MTT cytotoxicity assay, H1975; conditions: Homo sapiens, NCI-H1975, H1975, Non-small cell lung cancer, incubation 72 h
# Procedure: as §1, §2
# H23 = assay: MTT cytotoxicity assay, H23; conditions: Homo sapiens, NCI-H23, H23, Non-small cell lung cancer, incubation 72 h
# Procedure: as §1, §2
# SEM cells [1] = assay: MTT cytotoxicity assay, SEM; conditions: B-cell acute lymphoblastic leukemia (B-ALL), incubation 48 h
# Procedure: as §1, §2
# SEM cells [2] = assay: Flow cytometry Annexin V/PI apoptosis assay, SEM; conditions: B-cell acute lymphoblastic leukemia (B-ALL), incubation 48 h
# Procedure: as §3, §4, §2
# Reh = assay: MTT cytotoxicity assay, Reh; conditions: Homo sapiens, Non-T-cell non-B-cell-acute lymphoblastic leukemia, incubation 48 h
# Procedure: as §1, §2
# SupB15 [3] = assay: MTT cytotoxicity assay, SupB15; conditions: Homo sapiens, SUP-B15, SupB15, B-cell acute lymphoblastic leukemia (B-ALL), incubation 48 h
# Procedure: as §1, §2
# SupB15 [4] = assay: Flow cytometry Annexin V/PI apoptosis assay, SupB15; conditions: Homo sapiens, SUP-B15, SupB15, B-cell acute lymphoblastic leukemia (B-ALL), incubation 48 h
# Procedure: as §3, §4, §2
# SKOV3 = assay: MTT cytotoxicity assay, SKOV3; conditions: Homo sapiens, SK-OV-3, SKOV3, Ovarian cancer (OC), incubation 48 h
# Procedure: as §1, §2
# Caov3 [5] = assay: MTT cytotoxicity assay, Caov3; conditions: Homo sapiens, Caov-3, Caov3, Ovarian cancer (OC), incubation 48 h
# Procedure: as §1, §2
# Caov3 [6] = assay: Flow cytometry Annexin V/PI apoptosis assay, Caov3; conditions: Homo sapiens, Caov-3, Caov3, Ovarian cancer (OC), incubation 48 h
# Procedure: as §3, §4, §2
# Z138 = assay: MTT cytotoxicity assay, Z138; conditions: Homo sapiens, Z-138, Z138, Mantle Cell Lymphoma (MCL), incubation 96 h
# Procedure: as §1, §2
# JeKo1 = assay: MTT cytotoxicity assay, JeKo1; conditions: Homo sapiens, JeKo-1, JeKo1, Mantle Cell Lymphoma (MCL), incubation 96 h
# Procedure: as §1, §2
# AMO-1 = assay: MTT cytotoxicity assay, AMO-1; conditions: Homo sapiens, AMO1, AMO-1, Multiple Myeloma (MM), incubation 96 h
# Procedure: as §1, §2
# MIA PaCa-2 = assay: MTT cytotoxicity assay, MIA PaCa-2; conditions: Homo sapiens, MIA PaCa-2, Pancreatic cancer, incubation 48 h
# Procedure: as §1, §2
# MDA-MB-231 = assay: MTT cytotoxicity assay, MDA-MB-231; conditions: Homo sapiens, MDA-MB-231, Triple negative breast cancer, incubation 48 h
# Procedure: as §1, §2
# EHEB = assay: MTT cytotoxicity assay, EHEB; conditions: CLL cell line, DSMZ bank, (ACC 67), incubation 48 h
# Procedure: as §1, §2
# MEC-2 = assay: MTT cytotoxicity assay, MEC-2; conditions: MEC2, MEC-2, CLL cell line, DSMZ bank, (ACC 500), incubation 48 h
# Procedure: as §1, §2
structure (smiles),measurement,setting,value
"CCOCCN1CCN(c2ccc(-c3nc4c(NC5CCN(CC)CC5)c(Br)cnc4[nH]3)cc2)CC1 [Example 172, 6-Bromo-2-{4-[4-(2-ethoxyethyl)piperazin-1-yl]phenyl}-N-(1-ethylpiperidin-4-yl)-3H-imidazo[4,5-b]pyridin-7-amine]",IC50,RC-KB,100 nM
same,IC50,OCI-LY3,50 nM
same,IC50,HDLM2,50 nM
same,IC50,MDA-V,100 nM
same,IC50,H69,250 nM
same,IC50,H82,410 nM
same,IC50,H187,230 nM
same,IC50,H209,240 nM
same,IC50,H1417,540 nM
same,IC50,A549,100 nM
same,IC50,HCC827,100 nM
same,IC50,H1975,250 nM
same,IC50,H23,150 nM
same,IC50,SEM cells [1],25 nM
same,IC50,SEM cells [2],31 nM
same,IC50,Reh,50 nM
same,IC50,SupB15 [3],50 nM
same,IC50,SupB15 [4],66 nM
same,IC50,SKOV3,250 nM
same,IC50,Caov3 [5],250 nM
same,IC50,Caov3 [6],270 nM
same,IC50,Z138,250 nM
same,IC50,JeKo1,75 nM
same,IC50,AMO-1,50 nM
same,IC50,MIA PaCa-2,100 nM
same,IC50,MDA-MB-231,150 nM
same,IC50,EHEB,200 nM
same,IC50,MEC-2,110 nM
